Measurements as given in patent US11279682B2 (H. Lundbeck A/S, priority 2015, dated 2022).
Read-outs that look alike come from different tables or passages of the source.

How the values were obtained:
[1] = Gelling experiments (vortioxetine pyroglutamate, a salt and water in a vial, left upside down); assay type: physicochemical
From the text: In one embodiment, the invention relates to a gel comprising vortioxetine pyroglutamate, a salt and water. […] A gel of the present invention is particularly useful for oral administration because it is easily swallowed compared to other oral administration forms, in particular tablets and capsules. A gel of the present invention may comprise other ingredients known in pharmaceutical science, in particular taste modifiers, as discussed above. In the present context and in line with the USP definition of a gel, a gel is intended to indicate a semisolid system consisting of either small […] or large organic molecules interpenetrated by a liquid. A gel thus presents as a coherent, viscous, plastic or non-disintegrating phase. […] In one embodiment, said gel comprises 0.1 M-1 M salt, such as 0.1 M-0.5 M salt, such as 0.1 M-0.3 M salt. […] The amounts of vortioxetine pyroglutamate are indicated as free base. It is the experience of the inventors that the volume of the aqueous phase and the final gel are roughly similar when the gel comprises a therapeutically relevant dose in a therapeutically relevant volume.
The gelling experiments were carried out in a 4 ml cylindrical vial with an inner diameter of approximately 1 cm.

[2] = Dynamic Vapour Sorption (hygroscopicity); assay type: physicochemical; conditions: for Water absorbed (DVS, change in mass): humidity up to / at 95% relative humidity, 25° C.
Method: Dynamic Vapour Sorption spectra were obtained on equipment from SMS Systems (DVS Advantage). The change in mass (relative to the dry state) of a sample (10-20 mg) was determined as a function of the relative humidity (P/P0) at 25° C.

[3] = Intrinsic dissolution rate, spinning-disc method; assay type: physicochemical; conditions: for IDR (mean of 2 determinations (mg/cm2/min)): 50 mM Tris at pH 6.8, 37° C./200 RPM, as free base
Method: The intrinsic dissolution rate (IDR) is expressed as mg vortioxetine dissolved per cm^2 surface per min. The intrinsic dissolution rate is measured using the “spinning-disc method” (μDISS Profiler Instrument from Pion Instruments).
In order to define the surface from which the test compound dissolves, miniaturized disks of compacted pure test compound are made (10 mg). The disk holding the test compound is inserted into a Teflon cup containing an imbedded magnet. The cup is inserted into a vial containing 20 ml dissolution medium (37° C./200 RPM). The dissolved test compound is measured by a fibre optic detection system (200-400 nm). The concentration is determined by comparison with a standard solution and the calculated amount of test compound released (as free base) per surface area is plotted versus time. The slope gives the intrinsic dissolution rate. The measurements are performed in duplicate. The dissolution medium was 50 mM Tris at pH 6.8. Vortioxetine HBr β-form is defined in WO 2007/144005 (see e.g. example 4c and 4d).

[4] = cited from earlier work
[5] = Example 2: 10.2 mg, potassium bromide in water 0.23 M, 1.0 mL, 4 mL vial
[6] = known salts, values from the cited reference
[7] = Example 8: 7.6 mg, sodium bromide in water 0.18 M, 1.0 mL, 4 mL vial
[8] = Example 1: 5.5 mg, potassium bromide in water 0.17 M, 1.0 mL, 4 mL vial
[9] = Example 3: 6.2 mg, sodium bromide total 0.26 M, 1.0 mL, 4 mL vial
[10] = Example 4: 10.7 mg, sodium bromide total 0.20 M, 1.0 mL, 4 mL vial
[11] = Example 5: 0.80 g, sodium chloride in water 0.20 M, 100 mL, 250 mL round-bottomed flask
[12] = Example 6: 8.0 mg, sodium chloride total 0.26 M, 1.0 mL, 4 mL vial
[13] = Example 7: 11.2 mg, sodium chloride total […], 1.0 mL, 4 mL vial
[14] = Example 9: 14 mg, sodium chloride 26 mg and water 2.0 mL, 4 mL vial

## Cc1ccc(Sc2ccccc2N2CCNCC2)c(C)c1.O=C1CCC(C(=O)O)N1 [vortioxetine (DL)-pyroglutamate α-form]
[1]; [5]
  Standing time until a clear gel was formed: less than 1 minute
  Time vial left upside down with gel properties maintained: more than 1 hour
[2]; DVS spectrum up to 95% relative humidity
  Hygroscopicity (DVS): not hygroscopic
[2]; listed as vortioxetine (DL)pyroglutamate α-form
  Water absorbed (DVS, change in mass): Less than 0.3%

## Br.Cc1ccc(Sc2ccccc2N2CCNCC2)c(C)c1 [HBr β-form, reference compound]
[3]
  IDR (mean of 2 determinations (mg/cm2/min)): 0.10 mg/cm2/min
[4]; [6]
  Solubility: 1200 µg/mL

## CC(O)C(=O)O.Cc1ccc(Sc2ccccc2N2CCNCC2)c(C)c1.O [L-lactate Monohydrate2]
[4]; [6]
  Solubility: 26000 µg/mL

## CC(O)C(=O)O.Cc1ccc(Sc2ccccc2N2CCNCC2)c(C)c1 [DL-lactate β-form]
[4]; [6]
  Solubility: 8000 µg/mL

## Cc1ccc(Sc2ccccc2N2CCNCC2)c(C)c1.Cl [HCl]
[4]; [6]
  Solubility: 3000 µg/mL

## Cc1ccc(Sc2ccccc2N2CCNCC2)c(C)c1.O=C1CCC(C(=O)O)N1 [vortioxetine pyroglutamate]
[3]; Example 18
  Dissolution rate compared to the HBr salt: markedly higher dissolution rate

## Cc1ccc(Sc2ccccc2N2CCNCC2)c(C)c1.O=C1CCC(C(=O)O)N1 [vortioxetine (L)-pyroglutamate, Vortioxetine (L)-pyroglutamate]
[1]; [7]
  Standing time until a clear gel was formed: less than 1 minute
  Time vial left upside down with gel properties maintained: more than 30 minutes
[2]
  Water absorbed (DVS, change in mass): 2.7%
[3]
  IDR (mean of 2 determinations (mg/cm2/min)): 14.9 mg/cm2/min

## O=C1CCC(C(=O)O)N1 (racemic) [DL-Pyroglutamate]
[3]
  IDR (mean of 2 determinations (mg/cm2/min)): 14.7 mg/cm2/min

## Maleate
[4]; [6]
  Solubility: 1000 µg/mL

## Phosphate
[4]; [6]
  Solubility: 1000 µg/mL

## Cc1ccc(Sc2ccccc2N2CCNCC2)c(C)c1.O.O=C1CCC(C(=O)O)N1 [vortioxetine (DL)-pyroglutamate MH]
[1]; [8]
  Standing time until a clear gel was formed: less than 1 minute
  Time vial left upside down with gel properties maintained: more than 1 hour
[1]; [9]
  Standing time until a clear gel was formed: less than 1 minute
  Time vial left upside down with gel properties maintained: more than 30 minutes
[1]; [10]
  Standing time until a clear gel was formed: less than 1 minute
  Time vial left upside down with gel properties maintained: more than 1 hour
[1]; [11]
  Standing time until a clear gel was formed: 2 min
  Time flask left upside down with gel properties maintained: more than 30 minutes
[1]; [12]
  Standing time until a clear gel was formed: 6 min
  Time vial left upside down with gel properties maintained: more than 1 hour
[1]; [13]
  Standing time until a clear gel was formed: 5 min
  Time vial left upside down with gel properties maintained: more than 30 minutes
[1]; [14]
  Standing time until gel was formed: less than 1 minute
  Time vial left upside down with gel properties maintained: more than 10 minutes
[2]; at 95% relative humidity
  Hygroscopicity (DVS): hygroscopic
[2]
  Water absorbed (DVS, change in mass): more than 10%
[2]; up to 80% relative humidity at 25° C.
  Hygroscopicity (DVS): not hygroscopic

## Br.Cc1ccc(Sc2ccccc2N2CCNCC2)c(C)c1
[4]; (Calculated), WO 2014/044721
  Solubility: 3000 to 3800 µg/mL
